Columns and labels:
human GR [1] = molecular target: T1, human GR (Homo sapiens, UniProt P04150); experiment: Trans-Activation Modulation of Glucocorticoid Receptor (GRAMMER), MMTV-LUC reporter, agonist mode; assay type: cell-based; set-up: endogenous in cells; conditions: for Emax: A549, A549 cells, maximum activity, read-out: Transactivation A549 Cells GRAMMER Emax; for EC50: A549 cells, inflection point, read-out: Transactivation A549 Cells GRAMMER IP
T1 sequence (P04150 1-777): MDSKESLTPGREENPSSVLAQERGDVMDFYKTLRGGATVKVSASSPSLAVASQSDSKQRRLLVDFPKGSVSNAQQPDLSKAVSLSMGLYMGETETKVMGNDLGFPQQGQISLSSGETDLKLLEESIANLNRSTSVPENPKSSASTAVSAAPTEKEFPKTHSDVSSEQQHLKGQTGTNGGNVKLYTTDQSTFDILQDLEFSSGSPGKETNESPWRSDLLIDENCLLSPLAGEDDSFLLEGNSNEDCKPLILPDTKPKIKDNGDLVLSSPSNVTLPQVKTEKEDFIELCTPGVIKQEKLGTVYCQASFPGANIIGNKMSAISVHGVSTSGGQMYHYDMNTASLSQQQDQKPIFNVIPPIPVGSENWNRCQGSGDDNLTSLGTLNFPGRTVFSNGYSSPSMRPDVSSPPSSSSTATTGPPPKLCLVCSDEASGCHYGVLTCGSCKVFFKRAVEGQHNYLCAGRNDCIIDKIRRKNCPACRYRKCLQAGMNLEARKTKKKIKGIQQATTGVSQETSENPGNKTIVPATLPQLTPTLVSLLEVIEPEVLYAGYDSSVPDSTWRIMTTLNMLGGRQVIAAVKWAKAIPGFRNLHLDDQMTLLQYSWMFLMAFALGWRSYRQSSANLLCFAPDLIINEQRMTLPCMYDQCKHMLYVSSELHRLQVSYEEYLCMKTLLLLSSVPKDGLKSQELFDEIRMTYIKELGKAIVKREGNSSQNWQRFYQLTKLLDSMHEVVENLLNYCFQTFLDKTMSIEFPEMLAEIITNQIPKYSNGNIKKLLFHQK
Outline: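 Readout is luciferase from a modified MMTV LTR promoter after 24 h compound exposure alongside 10 nM dexamethasone (100% activity reference), DMSO ≤1%.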

human GR [2] = molecular target: T1, human GR; experiment: Transrepression Assay (GITAR), TNFα-β-lactamase reporter in U937 cells; assay type: cell-based; set-up: U937 cells contain an endogenous glucocorticoid receptor (GR); endogenous in cells; host or cells: U937 cells stably transfected with the TNF-alpha promoter/beta-lactamase reporter; conditions: for GITAR > GRAMM % SEP: GITAR Emax minus GRAMMER Emax; for EC50: U937 cells, inflection point, read-out: Transrepression U937 Cells GITAR IP
Outline: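 Repression normalised to 100 nM dexamethasone (100%), measured with CCF2-AM β-lactamase substrate after 70–90 min at room temperature. Stably transfected U937 cells were exposed to compound 30–45 min, then to PMA (5 ng/ml final) plus LPS (100 ng/ml final) overnight (~18 hr), 37° C.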

[3] = U-937, U937 cells, maximum activity, read-out: Transrepression U937 Cells GITAR Emax
[4] = U-937, activity repressed by 100 nM dexamethasone alone set as 100%, read-out: maximal activity in the transrepression (GITAR) assay

| SMILES | Emax (human GR [1]) [%] | EC50 (human GR [1]) [nM] | GITAR > GRAMM % SEP (human GR [2]) [%] | EC50 (human GR [2]) [nM] | Emax (human GR [2]; [3]) [%] | Emax (human GR [2]; [4]) [%] |
| --- | --- | --- | --- | --- | --- | --- |
| C[C@]12Cc3cnn(-c4ccc(F)cc4)c3C=C1CC[C@@H]2CN(CCc1ccccc1F)S(=O)(=O)Cc1cccc(Cl)c1 [Example 106, 1-(3-chlorophenyl)-N-[2-(2-fluorophenyl)ethyl]-N-{[(4αR,5S)-1-(4-fluorophenyl)-4α-methyl-1,4,4α,5,6,7-hexahydrocyclopenta[f]indazol-5-yl]methyl}methanesulfonamide] | 82.8 | 328 | 2.5 | 44.1 | 85.3 | > 5 |
| COc1ccc(CCN(C[C@H]2CCC3=Cc4c(cnn4-c4ccc(F)cc4)C[C@@]32C)S(=O)(=O)CC(F)(F)F)cc1 [Example 127, 2,2,2-trifluoro-N-{[(4αR,5S)-1-(4-fluorophenyl)-4α-methyl-1,4,4α,5,6,7-hexahydrocyclopenta[f]indazol-5-yl]methyl}-N-[2-(4-methoxyphenyl)ethyl]ethanesulfonamide] | 67.9 | 232 | 15.1 | 202 | 83 | > 5 |
| C[C@]12Cc3cnn(-c4ccc(F)cc4)c3C=C1CC[C@@H]2CN(CC1CC1)S(=O)(=O)c1ccc(-c2ccccc2)cc1 [Example 10, N-(cyclopropylmethyl)-N-{[(4αR,5S)-1-(4-fluorophenyl)-4α-methyl-1,4,4α,5,6,7-hexahydrocyclopenta[f]indazol-5-yl]methyl}biphenyl-4-sulfonamide] | 12.3 | 615 | 34.4 | 465 | 46.6 | > 5 |
| C[C@]12Cc3cnn(-c4ccc(F)cc4)c3C=C1CC[C@@H]2CN(CCc1ccncc1)S(=O)(=O)CC(F)(F)F [Example 129, 2,2,2-trifluoro-N-{[(4αR,5S)-1-(4-fluorophenyl)-4α-methyl-1,4,4α,5,6,7-hexahydrocyclopenta[f]indazol-5-yl]methyl}-N-(2-pyridin-4-ylethyl)ethanesulfonamide] | 67.2 | 948 | 11.9 | 623 | 79.1 | > 5 |
| C[C@]12Cc3cnn(-c4ccc(F)cc4)c3C=C1CC[C@@H]2CN(CC1CC1)S(=O)(=O)c1cc(C(F)(F)F)ccc1Cl [Example 5, 2-chloro-N-(cyclopropylmethyl)-N-{[(4αR,5S)-1-(4-fluorophenyl)-4α-methyl-1,4,4α,5,6,7-hexahydrocyclopenta[f]indazol-5-yl]methyl}-5-(trifluoromethyl)benzenesulfonamide] | 2.9 | 422 | 16.2 | 223 | 19.2 | > 5 |
| C[C@]12Cc3cnn(-c4ccc(F)cc4)c3C=C1CC[C@@H]2CN(CCc1ccccc1F)S(=O)(=O)Cc1ccc(Cl)c(Cl)c1 [Example 111, 1-(3,4-dichlorophenyl)-N-[2-(2-fluorophenyl)ethyl]-N-{[(4αR,5S)-1-(4-fluorophenyl)-4α-methyl-1,4,4α,5,6,7-hexahydrocyclopenta[f]indazol-5-yl]methyl}methanesulfonamide] | 37.6 | 748 | 38.1 | 325 | 75.7 | > 5 |
| CCCS(=O)(=O)N(CCOC)C[C@H]1CCC2=Cc3c(cnn3-c3ccc(F)cc3)C[C@@]21C [Example 95, N-{[(4αR,5S)-1-(4-fluorophenyl)-4α-methyl-1,4,4α,5,6,7-hexahydrocyclopenta[f]indazol-5-yl]methyl}-N-(2-methoxyethyl)propane-1-sulfonamide] | 70.4 | 559 | 2.7 | 464 | 73.1 | > 5 |
| C[C@]12Cc3cnn(-c4ccc(F)cc4)c3C=C1CC[C@@H]2CN(CCc1ccccc1F)S(=O)(=O)c1ccccc1C(F)(F)F [Example 99, N-[2-(2-fluorophenyl)ethyl]-N-{[(4αR,5S)-1-(4-fluorophenyl)-4α-methyl-1,4,4α,5,6,7-hexahydrocyclopenta[f]indazol-5-yl]methyl}-2-(trifluoromethyl)benzenesulfonamide] | 62.1 | 236 | 24.6 | 64.4 | 86.8 | > 5 |
| C[C@]12Cc3cnn(-c4ccc(F)cc4)c3C=C1CC[C@@H]2CN(CCc1ccccn1)S(=O)(=O)Cc1ccccn1 [Example 165, N-{[(4αR,5S)-1-(4-fluorophenyl)-4α-methyl-1,4,4α,5,6,7-hexahydrocyclopenta[f]indazol-5-yl]methyl}-1-pyridin-2-yl-N-(2-pyridin-2-ylethyl)methanesulfonamide] | 37.8 | 306 | 23.4 | 286 | 61.1 | > 5 |
| C[C@H](O)CN(C[C@H]1CCC2=Cc3c(cnn3-c3ccc(F)cc3)C[C@@]21C)S(=O)(=O)CC(F)(F)F [Example 113] | 85.4 | 54.7 | 8.7 | 59 | 94 | > 5 |
| COc1ccccc1CCN(C[C@H]1CCC2=Cc3c(cnn3-c3ccc(F)cc3)C[C@@]21C)S(=O)(=O)Cc1cccnc1 [Example 125, N-{[(4αR,5S)-1-(4-fluorophenyl)-4α-methyl-1,4,4α,5,6,7-hexahydrocyclopenta[f]indazol-5-yl]methyl}-N-[2-(2-methoxyphenyl)ethyl]-1-pyridin-3-ylmethanesulfonamide] | 21.2 | 508 | 34.1 | 575 | 55.3 | > 5 |
| C[C@]12Cc3cnn(-c4ccc(F)cc4)c3C=C1CC[C@@H]2CN(CCc1ccccc1O)S(=O)(=O)Cc1cccnc1 [Example 131, N-{[(4αR,5S)-1-(4-fluorophenyl)-4α-methyl-1,4,4α,5,6,7-hexahydrocyclopenta[f]indazol-5-yl]methyl}-N-[2-(2-hydroxyphenyl)ethyl]-1-pyridin-3-ylmethanesulfonamide] | 37.4 | 571 | 22.9 | 437 | 60.3 | > 5 |
| C[C@]12Cc3cnn(-c4ccc(F)cc4)c3C=C1CC[C@@H]2CN(CCc1ccccc1CO)S(=O)(=O)CC(F)(F)F [Example 163, 2,2,2-trifluoro-N-{[(4αR,5S)-1-(4-fluorophenyl)-4α-methyl-1,4,4α,5,6,7-hexahydrocyclopenta[f]indazol-5-yl]methyl}-N-{2-[2-(hydroxymethyl)phenyl]ethyl}ethanesulfonamide] | 48.4 | 241 | 38.6 | 342 | 86.9 | > 5 |
| C[C@]12Cc3cnn(-c4ccc(F)cc4)c3C=C1CC[C@@H]2CN(CCc1ccccc1O)S(=O)(=O)c1ccccc1F [Example 116, 2-fluoro-N-{[(4αR,5S)-1-(4-fluorophenyl)-4α-methyl-1,4,4α,5,6,7-hexahydrocyclopenta[f]indazol-5-yl]methyl}-N-[2-(2-hydroxyphenyl)ethyl]benzenesulfonamide] | 73.5 | 676 | 7.7 | 94.9 | 81.2 | > 5 |
| CC(CN(C[C@H]1CCC2=Cc3c(cnn3-c3ccc(F)cc3)C[C@@]21C)S(=O)(=O)CC(F)(F)F)c1cccnc1 (stereo partly drawn) [Example 146, 2,2,2-trifluoro-N-{[(4αR,5S)-1-(4-fluorophenyl)-4α-methyl-1,4,4α,5,6,7-hexahydrocyclopenta[f]indazol-5-yl]methyl}-N-(2-pyridin-3-ylpropyl)ethanesulfonamide] | 91.5 | 263 | 1.8 | 308 | 93.3 | > 5 |

Reference: patent US8299048B2, “Hexahydrocyclopentyl[f]indazole sulfonamides and derivatives thereof as selective glucocorticoid receptor modulators” (Merck Sharp & Dohme Corp., priority 2008, dated 2012)
